# Laboratory results reported in patent US8975248B2, “Combinations of therapeutic agents for treating cancer” (Sigma-Tau Industrie Farmaceutiche Riunite S.p.A., priority 2004, dated 2015).
# Where two headings read alike, the source gives them in different places.
# What was measured:
# NCI-H460 NSCLC [1] = test: Antitumor activity against NCI-H460 xenograft (paclitaxel); conditions: for reduction of the tumor volume: 5 days for 3 cycles
# Procedure: (§2) Mice are treated with 3 intravenously doses of paclitaxel at days 3, 10, 17 after tumor injection. […] Treatments in NCI-H460 tumor model are performed in the following groups of 8 mice each: • 1. Vehicle • 2. 50 mg/15 ml/kg, i.v. of paclitaxel (3, 10, 17) • 3. […] 25 mg/15 ml/kg, i.v. of paclitaxel (3, 10, 17) • 5.
# [2] = test system: MDA MB 435S human breast cancer; test: Antitumor activity against MDA MB 435S xenograft; format: in vivo, human (xenograft in BALB/c nu/nu mice)
# Procedure: Test system: BALB/c nu/nu mice for tumor models are used.
# The cells are harvested by trypsinisation, washed twice in HBSS and counted using Trypan Blue to distinguish viable cells.
# Doxorubicin (either on its own or in conjunction with Gimatecan) is administered 3 times per week intravenously, via the tail vein (i.v.). • 1. Vehicle • 2.
# The paired t-test is used to determine differences in body weight changes from Day 0 to Day 13 for groups 14 and 15 and from Day 0 to Day 20 for all other groups (Table 4). All calculations are done using SigmaStat 3.0. The one way ANOVA procedure is used for statistical calculations of differences in the tumor volumes.
# NCI-H460 NSCLC [3] = conditions: in vivo, po
# Procedure: as §2
# MCF-7 human breast ca. = test: Antitumor activity against MCF-7 breast carcinoma xenograft; conditions: for BWL % (body weight loss): in vivo, po
# Procedure: The pellets are placed in the inter scapular region one day before the tumor cells inoculation. 8 mice/group are treated 6 days after tumor injection with the following drugs: • 1. Vehicle • 2.
# [4] = test system: A2780/DDP platinum-resistant ovarian carcinoma; test: Antitumor activity against A2780/DDP xenograft; format: in vivo, human (xenograft in CD1 nu/nu mice)
# Procedure: 8 mice/group are treated 3 days after tumor injection with the following drugs. • 1. Vehicle • 2.
# (§1) In all the combination groups, the drug were administered 1 h before 7-t butoxyiminomethylcamptothecin.
# [5] = test system: NCI-H460 non-small cell lung carcinoma; test: Antitumor activity against NCI-H460 xenograft (docetaxel, carboplatin); format: in vivo, human (xenograft in CD1 nu/nu mice)
# DU145 prostate carcinoma = test: Antitumor activity against DU145 xenograft; conditions: for BWL % (body weight loss): in vivo, po
# Procedure: 8 mice/group are treated 14 days after tumor injection with the following drugs: • 1. Vehicle • 2.
# 8 mice/group are also treated 14 days after tumor injection with the following drugs: • 1. […] Docetaxel 20 mg/10 mi/kg, i.p., (q7dx3, days 14, 21, 28). • 3. Combination groups: 7-t-butoxyiminomethylcamptothecin+docetaxel 0.17+20.
# A2780 ovarian carcinoma = test: Antitumor activity against A2780 ovarian carcinoma xenograft; format: in vivo, human (s.c. xenograft in CD1 nu/nu mice)
# Procedure: Vehicle • 2. […] Oxaliplatin 7 mg/10 ml/kg and 4.7 mg/10 ml/kg, i.p. (q4dx2, days 3, 7). • 4. Combination groups: 7-t-butoxyiminomethylcamptothecin+oxaliplatin: 0.28+7, 0.28+4.7, 0.19+7, 0.19+4.7. • 5. […] Oxaliplatin 7 mg/10 ml/kg, i.p. (q7dx2, days 3, 10). • 7. Combination groups: 7-t-butoxyiminomethylcamptothecin+oxaliplatin 0.19+7.
# 7-8 mice/group are treated 3 days after tumor injection with the following drugs. • 1. Vehicle • 2. […] Carboplatin 50 mg/10 ml/kg, i.p. (q7dx2, days 3, 10). • 7. Combination groups: 7-t-butoxyiminomethylcamptothecin+carboplatin 0.19+50.
# as §1
# [6] = Maximum tolerated dose (MTD) in tumor-bearing mice; format: in vivo
# [7] = A 0.08 mg/kg p.o. qdx5/w, 3 cycles
# [8] = A 0.28 mg/kg p.o. qdx5/w, 0.28 mg/kg
# [9] = docetaxel 20 mg/kg i.p. q3-4dx2
# [10] = carboplatin 50 mg/kg i.p. q4dx2
molecule,measurement,setting,value
CC[C@@]1(O)C(=O)OCc2c1cc1n(c2=O)Cc2c-1nc1ccccc1c2/C=N/OC(C)(C)C [A],T/C % (TW in treated mice/TW in control mice × 100),NCI-H460 NSCLC [1]; [7],59.5%
same,Tox (dead/treated mice),NCI-H460 NSCLC [1]; [7],0/8
same,T/C % (TW in treated mice/TW in control mice × 100),"NCI-H460 NSCLC [1]; A 0.125 mg/kg p.o. qdx5/w, 3 cycles",9.9%
same,Tox (dead/treated mice),"NCI-H460 NSCLC [1]; A 0.125 mg/kg p.o. qdx5/w, 3 cycles, 0.125 mg/kg",0/8
same,reduction of the tumor volume,NCI-H460 NSCLC [1]; A 0.125 mg/kg,~90%
same,T/C % (TW in treated mice/TW in control mice × 100),"NCI-H460 NSCLC [1]; A 0.25 mg/kg p.o. qdx5/w, 3 cycles",1.5%
same,Tox (dead/treated mice),"NCI-H460 NSCLC [1]; A 0.25 mg/kg p.o. qdx5/w, 3 cycles, 0.25 mg/kg",0/8
same,reduction of the tumor volume,NCI-H460 NSCLC [1]; A 0.25 mg/kg,about 99%
same,BWL % (body weight loss),[2]; A 0.07 mg/kg p.o. qdx5/w,(+2.5) %
same,T/C %,[2]; A 0.07 mg/kg p.o. qdx5/w,93%
same,Tox (dead/treated mice),[2]; A 0.07 mg/kg p.o. qdx5/w,9/9
same,BWL % (body weight loss),[2]; A 0.14 mg/kg p.o. qdx5/w,1%
same,T/C %,[2]; A 0.14 mg/kg p.o. qdx5/w,46%
same,Tox (dead/treated mice),[2]; A 0.14 mg/kg p.o. qdx5/w,0/9
same,BWL % (body weight loss),[2]; A 0.21 mg/kg p.o. qdx5/w,1%
same,T/C %,[2]; A 0.21 mg/kg p.o. qdx5/w,5%
same,Tox (dead/treated mice),[2]; A 0.21 mg/kg p.o. qdx5/w,1/9
same,BWL % (body weight loss),NCI-H460 NSCLC [3]; 0.08 mg/kg,0%
same,BWL % (body weight loss),NCI-H460 NSCLC [3]; 0.125 mg/kg,0%
same,BWL % (body weight loss),NCI-H460 NSCLC [3]; 0.25 mg/kg,0%
same,CR (complete response),MCF-7 human breast ca.; A 0.19 mg/kg p.o. qdx5/w,1/8
same,TVI % (tumor volume inhibition),MCF-7 human breast ca.; A 0.19 mg/kg p.o. qdx5/w,81%
same,Tox (dead/treated mice),MCF-7 human breast ca.; A 0.19 mg/kg p.o. qdx5/w,2/8
same,TVI % (tumor volume inhibition),MCF-7 human breast ca.; A 0.28 mg/kg p.o. qdx5/w,70%
same,Tox (dead/treated mice),MCF-7 human breast ca.; A 0.28 mg/kg p.o. qdx5/w,1/8
same,CR (complete response),MCF-7 human breast ca.; [8],1/8
same,BWL % (body weight loss),MCF-7 human breast ca.; 0.19 mg/kg,10%
same,BWL % (body weight loss),MCF-7 human breast ca.; 0.28 mg/kg,9%
same,BWL % (body weight loss),[4]; A 0.19 mg/kg p.o. qdx5/w,1%
same,LCK (log10 cell kill),[4]; A 0.19 mg/kg p.o. qdx5/w,0.18
same,TVI % (tumor volume inhibition),[4]; A 0.19 mg/kg p.o. qdx5/w,35%
same,Tox (dead/treated mice),[4]; A 0.19 mg/kg p.o. qdx5/w,0/8
same,BWL % (body weight loss),[4]; A 0.28 mg/kg p.o. qdx5/w,7%
same,LCK (log10 cell kill),[4]; A 0.28 mg/kg p.o. qdx5/w,0.23
same,TVI % (tumor volume inhibition),[4]; A 0.28 mg/kg p.o. qdx5/w,46%
same,Tox (dead/treated mice),[4]; A 0.28 mg/kg p.o. qdx5/w,0/8
same,BWL % (body weight loss),[5]; A 0.19 mg/kg p.o. qdx5/w,8%
same,CR (complete response),[5]; A 0.19 mg/kg p.o. qdx5/w,1/8
same,LCK (log10 cell kill),[5]; A 0.19 mg/kg p.o. qdx5/w,1.14
same,TVI % (tumor volume inhibition),[5]; A 0.19 mg/kg p.o. qdx5/w,79%
same,Tox (dead/treated mice),[5]; A 0.19 mg/kg p.o. qdx5/w,0/8
same,BWL % (body weight loss),[5]; A 0.19 mg/kg p.o. qdx5/wx2w,7%
same,CR (complete response),[5]; A 0.19 mg/kg p.o. qdx5/wx2w,0/7
same,LCK (log10 cell kill),[5]; A 0.19 mg/kg p.o. qdx5/wx2w,2.3
same,TVI % (tumor volume inhibition),[5]; A 0.19 mg/kg p.o. qdx5/wx2w,94%
same,Tox (dead/treated mice),[5]; A 0.19 mg/kg p.o. qdx5/wx2w,0/7
same,BWL % (body weight loss),[5]; A 0.28 mg/kg p.o. qdx5/w,16%
same,CR (complete response),[5]; A 0.28 mg/kg p.o. qdx5/w,0/8
same,LCK (log10 cell kill),[5]; A 0.28 mg/kg p.o. qdx5/w,1.45
same,TVI % (tumor volume inhibition),[5]; A 0.28 mg/kg p.o. qdx5/w,94%
same,Tox (dead/treated mice),[5]; A 0.28 mg/kg p.o. qdx5/w,1/8
same,CR (complete response),DU145 prostate carcinoma; A 0.19 mg/kg p.o. qdx5/w,0/8
same,LCK (log10 cell kill),DU145 prostate carcinoma; A 0.19 mg/kg p.o. qdx5/w,0.28
same,TVI % (tumor volume inhibition),DU145 prostate carcinoma; A 0.19 mg/kg p.o. qdx5/w,25%
same,Tox (dead/treated mice),DU145 prostate carcinoma; A 0.19 mg/kg p.o. qdx5/w,0/8
same,CR (complete response),DU145 prostate carcinoma; A 0.25 mg/kg p.o. qdx5/w,0/8
same,LCK (log10 cell kill),DU145 prostate carcinoma; A 0.25 mg/kg p.o. qdx5/w,0.28
same,TVI % (tumor volume inhibition),DU145 prostate carcinoma; A 0.25 mg/kg p.o. qdx5/w,53%
same,Tox (dead/treated mice),DU145 prostate carcinoma; A 0.25 mg/kg p.o. qdx5/w,0/8
same,BWL % (body weight loss),DU145 prostate carcinoma; 0.19 mg/kg,4%
same,BWL % (body weight loss),DU145 prostate carcinoma; 0.25 mg/kg,8%
same,BWL % (body weight loss),A2780 ovarian carcinoma; A 0.19 mg/kg p.o. qdx5/w,6%
same,CR (complete response),A2780 ovarian carcinoma; A 0.19 mg/kg p.o. qdx5/w,8/8
same,LCK (log10 cell kill),A2780 ovarian carcinoma; A 0.19 mg/kg p.o. qdx5/w,2.15
same,TVI % (tumor volume inhibition),A2780 ovarian carcinoma; A 0.19 mg/kg p.o. qdx5/w,100%
same,Tox (dead/treated mice),A2780 ovarian carcinoma; A 0.19 mg/kg p.o. qdx5/w,0/8
same,BWL % (body weight loss),A2780 ovarian carcinoma; A 0.19 mg/kg p.o. qdx5/wx2w,6%
same,CR (complete response),A2780 ovarian carcinoma; A 0.19 mg/kg p.o. qdx5/wx2w,4/7
same,LCK (log10 cell kill),A2780 ovarian carcinoma; A 0.19 mg/kg p.o. qdx5/wx2w,3.15
same,TVI % (tumor volume inhibition),A2780 ovarian carcinoma; A 0.19 mg/kg p.o. qdx5/wx2w,100%
same,Tox (dead/treated mice),A2780 ovarian carcinoma; A 0.19 mg/kg p.o. qdx5/wx2w,0/7
same,BWL % (body weight loss),A2780 ovarian carcinoma; A 0.28 mg/kg p.o. qdx5/w,13%
same,CR (complete response),A2780 ovarian carcinoma; A 0.28 mg/kg p.o. qdx5/w,8/8
same,TVI % (tumor volume inhibition),A2780 ovarian carcinoma; A 0.28 mg/kg p.o. qdx5/w,100%
same,Tox (dead/treated mice),A2780 ovarian carcinoma; A 0.28 mg/kg p.o. qdx5/w,0/8
same,LCK (log10 cell kill),A2780 ovarian carcinoma; [8],2.44
same,MTD at 5 days,"[6]; CD1 nu/nu, mouse, in vivo, po, p.o. qdx5",0.28 mg/kg
same,MTD,"[6]; female, CD1 nu/nu, mouse, in vivo, oral, qdx5/w, A2780/DDP model, read-out: approximate maximum tolerated dose",~0.28 mg/kg
same,MTD,"[6]; male, mouse, in vivo, oral, qdx5/w, DU145 model, read-out: approximate maximum tolerated dose",~0.25 mg/kg
"CC(=O)O[C@@]12CO[C@@H]1C[C@H](O)[C@@]1(C)C(=O)[C@H](O)C3=C(C)[C@@H](OC(=O)[C@H](O)[C@@H](NC(=O)OC(C)(C)C)c4ccccc4)C[C@@](O)([C@@H](OC(=O)c4ccccc4)[C@H]21)C3(C)C [B, docetaxel, reference compound]",CR (complete response),MCF-7 human breast ca.; [9],1/8
same,TVI % (tumor volume inhibition),MCF-7 human breast ca.; [9],73%
same,TVI % (tumor volume inhibition),[5]; docetaxel 20 mg/kg i.p. q4dx2,63%
same,MTD,"[6]; CD1 nu/nu, mouse, in vivo, ip, docetaxel i.p. q4dx2, read-out: MTD",20 mg/kg
"CC(=O)O[C@H]1C(=O)[C@@]2(C)[C@H]([C@H](OC(=O)c3ccccc3)[C@]3(O)C[C@H](OC(=O)[C@H](O)[C@@H](NC(=O)c4ccccc4)c4ccccc4)C(C)=C1C3(C)C)[C@]1(OC(C)=O)CO[C@@H]1C[C@@H]2O [B, paclitaxel, reference compound]",T/C % (TW in treated mice/TW in control mice × 100),NCI-H460 NSCLC [1]; paclitaxel 25 mg/kg i.v. q7dx3,55.2%
same,T/C % (TW in treated mice/TW in control mice × 100),NCI-H460 NSCLC [1]; paclitaxel 33.3 mg/kg i.v. q7dx3,36.8%
same,T/C % (TW in treated mice/TW in control mice × 100),NCI-H460 NSCLC [1]; paclitaxel 50 mg/kg i.v. q7dx3,38.6%
same,MTD,"[6]; female, CD1 nu/nu, mouse, in vivo, iv, paclitaxel i.v. q7dx3, read-out: tolerated dose (MTD)",50 mg/kg
carboplatin [reference compound],TVI % (tumor volume inhibition),[4]; [10],34%
same,TVI % (tumor volume inhibition),[5]; [10],59%
same,MTD,[6]; carboplatin i.p. q4dx2,50 mg/kg
